The target of experiment [1] is T1, hNav1.7 (Homo sapiens, UniProt Q15858). Nature of the experiment: cell-based. As to conditions: ratio of IonWorks Quattro IC50 values, Nav1.4 over Nav1.7.
Experiment [2] deals with T1, hNav1.7. Nature of the experiment: cell-based. As to conditions: ratio of PX tonic IC50 values; Table 11. The experiment is classed as cell-based.

T1 sequence (Q15858 whole entry): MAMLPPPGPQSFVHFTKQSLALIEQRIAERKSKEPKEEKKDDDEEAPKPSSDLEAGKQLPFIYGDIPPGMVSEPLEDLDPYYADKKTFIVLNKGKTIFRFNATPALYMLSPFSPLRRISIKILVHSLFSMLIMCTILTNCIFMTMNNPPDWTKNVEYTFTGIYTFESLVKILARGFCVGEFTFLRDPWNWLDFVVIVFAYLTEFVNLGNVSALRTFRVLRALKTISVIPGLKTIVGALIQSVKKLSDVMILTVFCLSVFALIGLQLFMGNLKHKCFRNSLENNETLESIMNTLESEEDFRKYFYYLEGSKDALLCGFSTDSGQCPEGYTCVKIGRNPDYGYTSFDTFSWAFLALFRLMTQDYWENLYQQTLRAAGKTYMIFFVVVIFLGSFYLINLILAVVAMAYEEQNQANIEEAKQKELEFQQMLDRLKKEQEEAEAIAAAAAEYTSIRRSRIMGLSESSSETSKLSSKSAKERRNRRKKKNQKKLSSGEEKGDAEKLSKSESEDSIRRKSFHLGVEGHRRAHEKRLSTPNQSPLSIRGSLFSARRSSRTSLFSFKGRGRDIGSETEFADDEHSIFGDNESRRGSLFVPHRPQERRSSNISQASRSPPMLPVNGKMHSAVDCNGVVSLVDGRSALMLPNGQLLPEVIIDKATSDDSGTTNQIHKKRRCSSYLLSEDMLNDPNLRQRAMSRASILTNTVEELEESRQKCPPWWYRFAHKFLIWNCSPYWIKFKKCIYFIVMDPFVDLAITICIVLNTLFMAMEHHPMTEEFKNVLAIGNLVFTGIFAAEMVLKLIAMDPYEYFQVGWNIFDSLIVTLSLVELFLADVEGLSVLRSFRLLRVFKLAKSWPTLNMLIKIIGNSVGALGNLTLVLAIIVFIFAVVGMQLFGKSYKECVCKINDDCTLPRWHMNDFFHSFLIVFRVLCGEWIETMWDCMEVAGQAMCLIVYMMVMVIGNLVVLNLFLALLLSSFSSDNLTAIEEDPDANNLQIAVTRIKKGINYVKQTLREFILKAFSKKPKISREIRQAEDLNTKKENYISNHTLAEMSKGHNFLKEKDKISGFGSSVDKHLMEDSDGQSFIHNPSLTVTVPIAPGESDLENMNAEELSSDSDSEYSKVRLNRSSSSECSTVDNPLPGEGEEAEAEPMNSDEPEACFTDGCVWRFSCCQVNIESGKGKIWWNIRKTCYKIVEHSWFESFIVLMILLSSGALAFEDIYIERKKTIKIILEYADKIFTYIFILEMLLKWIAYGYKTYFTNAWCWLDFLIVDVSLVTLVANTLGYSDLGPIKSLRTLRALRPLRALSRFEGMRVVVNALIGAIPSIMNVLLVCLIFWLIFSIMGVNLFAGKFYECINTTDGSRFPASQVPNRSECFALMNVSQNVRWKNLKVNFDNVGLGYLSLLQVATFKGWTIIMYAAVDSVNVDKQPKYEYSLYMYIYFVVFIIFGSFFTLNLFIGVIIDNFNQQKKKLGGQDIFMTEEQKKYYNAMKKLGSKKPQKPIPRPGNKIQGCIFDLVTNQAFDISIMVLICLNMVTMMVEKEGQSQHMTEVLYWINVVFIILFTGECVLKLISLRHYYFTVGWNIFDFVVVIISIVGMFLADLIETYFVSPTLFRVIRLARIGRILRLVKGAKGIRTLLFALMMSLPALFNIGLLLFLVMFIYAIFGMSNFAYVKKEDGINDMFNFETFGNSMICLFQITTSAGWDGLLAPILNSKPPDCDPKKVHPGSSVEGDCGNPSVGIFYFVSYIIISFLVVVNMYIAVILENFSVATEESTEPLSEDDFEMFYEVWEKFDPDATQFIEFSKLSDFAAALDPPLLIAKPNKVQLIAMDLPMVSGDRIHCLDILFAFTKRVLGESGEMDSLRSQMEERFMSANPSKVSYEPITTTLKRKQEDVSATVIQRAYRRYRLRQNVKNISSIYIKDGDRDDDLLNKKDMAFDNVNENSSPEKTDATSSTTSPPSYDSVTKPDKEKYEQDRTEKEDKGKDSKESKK

Take `CC[C@H](C)[C@H](NC(=O)[C@@H](NC(=O)[C@H](CCCCN)NC(=O)[C@H](CCCNC(=N)N)NC(=O)[C@@H]1CSSC[C@@H]2NC(=O)[C@H](C)NC(=O)[C@H](CCCNC(=N)N)NC(=O)[C@H](CCCCN)NC(=O)[C@H](CO)NC(=O)[C@H](CC(=O)O)NC(=O)[C@@H]3CSSC[C@H](NC(=O)CNC(=O)[C@H](CC(C)C)NC(=O)CNC(=O)[C@H](CCC(=O)O)NC(=O)[C@H](CSSC[C@H](NC(=O)[C@@H](N)Cc4ccc(O)cc4)C(=O)N[C@@H](CCC(N)=O)C(=O)N[C@@H](CCCCN)C(=O)N[C@@H](Cc4c[nH]c5ccccc45)C(=O)N[C@@H](CCSC)C(=O)N[C@@H](Cc4c[nH]c5ccccc45)C(=O)N[C@@H]([C@@H](C)O)C(=O)N3)NC2=O)C(=O)N[C@@H](CCCCN)C(=O)N[C@@H](CC(C)C)C(=O)N[C@@H](Cc2c[nH]c3ccccc23)C(=O)N1)[C@@H](C)CC)C(N)=O` [compound 121]: the values for the Nav1.4/Nav1.7 at hNav1.7 [1] and on hNav1.7 [2] were 29 and 25, respectively. The Nav1.5/Nav1.7 at hNav1.7 [2] is 1808.
On the same counts, the results for `CC[C@H](C)[C@H](NC(=O)[C@@H](NC(=O)[C@H](CCCCN)NC(=O)[C@H](CCCNC(=N)N)NC(=O)[C@@H]1CSSC[C@@H]2NC(=O)[C@H](C)NC(=O)[C@H](CCCNC(=N)N)NC(=O)[C@H](CCCCN)NC(=O)[C@H](CO)NC(=O)[C@H](CC(=O)O)NC(=O)[C@@H]3CSSC[C@H](NC(=O)[C@H](Cc4ccc(O)cc4)NC(=O)[C@H](CC(C)C)NC(=O)CNC(=O)[C@H](CCC(=O)O)NC(=O)[C@H](CSSC[C@H](NC(=O)[C@@H](N)Cc4ccc(O)cc4)C(=O)N[C@@H](CCC(N)=O)C(=O)N[C@@H](CCCCN)C(=O)N[C@@H](Cc4c[nH]c5ccccc45)C(=O)N[C@@H](CCSC)C(=O)N[C@@H](Cc4c[nH]c5ccccc45)C(=O)N[C@@H]([C@@H](C)O)C(=O)N3)NC2=O)C(=O)N[C@@H](CCCCN)C(=O)N[C@@H](CC(C)C)C(=O)N[C@@H](Cc2c[nH]c3ccccc23)C(=O)N1)[C@@H](C)CC)C(N)=O` [compound 124] are 43, 266 and above 1695.
In the same order, the values of `CC[C@H](C)[C@H](NC(=O)[C@@H](NC(=O)[C@H](CCCCN)NC(=O)[C@H](CCCNC(=N)N)NC(=O)[C@@H]1CSSC[C@@H]2NC(=O)[C@H](C)NC(=O)[C@H](CCCNC(=N)N)NC(=O)[C@H](CCCCN)NC(=O)[C@H](CO)NC(=O)[C@H](CC(=O)O)NC(=O)[C@@H]3CSSC[C@H](NC(=O)[C@H](CCC(=O)O)NC(=O)[C@H](CC(C)C)NC(=O)CNC(=O)[C@H](CCC(=O)O)NC(=O)[C@H](CSSC[C@H](NC(=O)[C@@H](N)Cc4ccc(O)cc4)C(=O)N[C@@H](CCC(N)=O)C(=O)N[C@@H](CCCCN)C(=O)N[C@@H](Cc4c[nH]c5ccccc45)C(=O)N[C@@H](CCSC)C(=O)N[C@@H](Cc4c[nH]c5ccccc45)C(=O)N[C@@H]([C@@H](C)O)C(=O)N3)NC2=O)C(=O)N[C@@H](CCCCN)C(=O)N[C@@H](CC(C)C)C(=O)N[C@@H](Cc2c[nH]c3ccccc23)C(=O)N1)C(C)C)C(N)=O` [compound 133] are 51, 320 and 1341.
On the same counts, the results for `CC[C@H](C)[C@H](NC(=O)[C@H](CCCNC(N)=O)NC(=O)[C@H](CCCCN)NC(=O)[C@H](CCCNC(=N)N)NC(=O)[C@@H]1CSSC[C@@H]2NC(=O)[C@H](C)NC(=O)[C@H](CCCNC(=N)N)NC(=O)[C@H](CCCCN)NC(=O)[C@H](CO)NC(=O)[C@H](CC(=O)O)NC(=O)[C@@H]3CSSC[C@H](NC(=O)[C@H](CCC(=O)O)NC(=O)[C@H](CC(C)C)NC(=O)CNC(=O)[C@H](CCC(=O)O)NC(=O)[C@H](CSSC[C@H](NC(=O)[C@@H](N)Cc4ccc(O)cc4)C(=O)N[C@@H](CCC(N)=O)C(=O)N[C@@H](CCCCN)C(=O)N[C@@H](Cc4c[nH]c5ccccc45)C(=O)N[C@@H](CCSC)C(=O)N[C@@H](Cc4c[nH]c5ccccc45)C(=O)N[C@@H]([C@@H](C)O)C(=O)N3)NC2=O)C(=O)N[C@@H](CCCCN)C(=O)N[C@@H](CC(C)C)C(=O)N[C@@H](Cc2c[nH]c3ccccc23)C(=O)N1)C(N)=O` [compound 135] are 46, 1075 and above 1786.

The values are drawn from patent publication US10344060B2 (priority 2013, dated 2019).
